Reference: patent US7045116B2, “Treatment of osteomyelitis with radiopharmaceuticals” (priority 2001, dated 2006)

Experiments:
[1] = test system: Staphylococcus aureus; test: Treatment of osteomyelitis in rats with 166Ho-DOTMP (serial radiographs of the leg); type: in vivo, Sprague Dawley rats; settings: rats with S. aureus osteomyelitis of left leg; intramuscular injection of 30 Gray (9 milliCurie); tourniquet above knee released after 10 minutes; in two weeks
Experimental: This example describes the successful treatment of osteomyelitis in rats using ^166Ho-DOTMP. Four 150 g male Sprague Dawley rats were anesthetized and prepared for surgery by shaving the left leg. The skin over the left tibia and fibula was opened, a hole was drilled into the bone marrow, and an 18-gauge needle was inserted into the bone marrow. Through the needle, a piece of 0 surgical suture and approximately 0.1 ml of Staphylococcus aureus culture in Trypticase soy broth were introduced into the bone marrow. The needle was removed and the bone defect sealed with cyanoacrylate glue. The skin was closed with 0 surgical suture. The rats were followed with serial radiographs of the left leg. Lytic lesions diagnostic of osteomyelitis developed in the fibula over the next three weeks. The entire bone appeared radiolucent. Two rats were followed without treatment. One week later, both of the rats died. […] Culture of the fluid grew Gram positive cocci consistent with the original Staphylococcus aureus infection. Two rats were treated with ^166Ho-DOTMP. A tourniquet was placed on the left leg above the knee. An intramuscular injection of 30 Gray (9 milliCurie) of ^166Ho-DOTMP was given after application of the tourniquet. The tourniquet was released after 10 minutes. The rats were followed with continued serial radiographs of the leg.

[2] = Biodistribution of radiopharmaceuticals in rats with tourniquet on left hind leg; type: in vivo, Sprague-Dawley rats; settings: for Femoral Percentage Dose per Gram / Tibial Percentage Dose per Gram: i.v. tail vein; for Tibial Percentage Dose per Gram: sacrifice after two hours
Excerpt: Rat biodistribution studies were done on Male Sprague-Dawley rats weighing 180–200 g that had been acclimated for approximately one week prior to this study. Four test complexes were used, Ho-DOTMP (Example 3), Ho-EDTMP (Example 4), Sm-DOTMP (Example 5) and Sm-EDTMP (Example 6). The rats were placed in a restraining cage that afforded accessibility to the left hind leg and tail. Prior to injection a tie wrap tourniquet was placed on the left hind femur above the knee to restrict blood flow. The amount of pressure induced by the tourniquet was standardized by using a tie wrap gun and was sufficient to stop arterial flow. Three rats per complex each received a 100.0 μL intravenous injection in a lateral tail vein. The tourniquets were allowed to remain in place for 5, 10 or 20 minutes post injection and were then removed. The rats were then watched for two hours, the usual biodistribution period used to allow excretion of all radioactive complexes not bound to tissue. The rats were then sacrificed for removal of tibias. The number of radioactive counts were then determined and compared to the average of number of counts of three 100.0 μL standards of the same material that was injected. Several additional tissues (femur, injection site, liver, kidney, spleen, muscle, and blood) were collected and counted for rats that had the 20 minutes restricted blood flow to check for expected renal excretion of radioactive complexes.
This reflects the concentration of the radioactive complex in the bone. Table 1 combines the data on the radioactivity found in the tibias of the rats from Examples 3 to 6 for each of the three times of tourniquet placement. Table 2 combines the data on the radioactivity found in the femurs of the rats from Examples 3 to 6 for the tourniquets applied for 20 minutes. The degree of “protection” of the bone by the tourniquet can be seen by comparison of the radioactivity in the bones on the left side (“protected” by the tourniquet for the time specified) as compared to the corresponding bones on the right side (fully exposed to the systemic, intravenous dose).

[3] = Left Femur (partially protected by tourniquet), tourniquet 20 minute
[4] = Left Tibia (protected by tourniquet), tourniquet 5 minute
[5] = Left Tibia (protected by tourniquet), tourniquet 10 minute
[6] = Left Tibia (protected by tourniquet), tourniquet 20 minute
[7] = Right Femur (unprotected), tourniquet 20 minute
[8] = Right Tibia (unprotected), tourniquet 5 minute
[9] = Right Tibia (unprotected), tourniquet 10 minute
[10] = Right Tibia (unprotected), tourniquet 20 minute

Row | Structure (SMILES) | Radiographic appearance of tibia and fibula [1] | Dose per Gram in Left Leg as a Percentage of Dose per Gram in Right Leg ([2]; Femur, tourniquet 20 minute) [%] | Femoral Percentage Dose per Gram [2, 3] [Percentage Dose per Gram] | Tibial Percentage Dose per Gram [2, 4] [Percentage Dose per Gram] | Tibial Percentage Dose per Gram [2, 5] [Percentage Dose per Gram] | Tibial Percentage Dose per Gram [2, 6] [Percentage Dose per Gram] | Femoral Percentage Dose per Gram [2, 7] [Percentage Dose per Gram] | Tibial Percentage Dose per Gram [2, 8] [Percentage Dose per Gram] | Tibial Percentage Dose per Gram [2, 9] [Percentage Dose per Gram] | Tibial Percentage Dose per Gram [2, 10] [Percentage Dose per Gram] | Dose per Gram in Left Leg as a Percentage of Dose per Gram in Right Leg ([2]; Tibia, tourniquet 5 minute) [%] | Dose per Gram in Left Leg as a Percentage of Dose per Gram in Right Leg ([2]; Tibia, tourniquet 10 minute) [%] | Dose per Gram in Left Leg as a Percentage of Dose per Gram in Right Leg ([2]; Tibia, tourniquet 20 minute) [%]
1 | O=P([O-])(O)CN1CCN(CP(=O)(O)O)CCN(CP(=O)([O-])O)CCN(CP(=O)(O)O)CC1.[166Ho] [^166Ho-DOTMP] | return to normal appearance of the tibia and fibula | – | – | – | – | – | – | – | – | – | – | – | –
2 | O=P(O)(O)CN(CCN(CP(=O)(O)O)CP(=O)(O)O)CP(=O)(O)O.[Ho+3] [Ho-EDTMP] | – | 54 | 2.33 | 1.35 | 3.49 | 1.25 | 4.31 | 1.60 | 6.95 | 5.33 | 84 | 50 | 23
3 | O=P(O)(O)CN1CCN(CP(=O)(O)O)CCN(CP(=O)(O)O)CCN(CP(=O)(O)O)CC1.[Sm+3] [Sm-DOTMP] | – | 22 | 1.40 | 4.82 | 3.38 | 2.06 | 6.46 | 7.91 | 6.79 | 8.34 | 61 | 50 | 25
4 | O=P(O)(O)CN(CCN(CP(=O)(O)O)CP(=O)(O)O)CP(=O)(O)O.[Sm+3] [Sm-EDTMP] | – | 38 | 2.05 | 5.33 | 2.56 | 2.04 | 5.44 | 6.73 | 6.17 | 5.73 | 79 | 41 | 36
5 | O=P(O)(O)CN1CCN(CP(=O)(O)O)CCN(CP(=O)(O)O)CCN(CP(=O)(O)O)CC1.[Ho+3] [Ho-DOTMP] | – | 24 | 1.33 | 3.19 | 3.41 | 1.35 | 5.59 | 7.06 | 7.52 | 6.39 | 45 | 45 | 21
